Source: patent US6921777B2, “Heteroethynylenic compounds and pharmaceutical and cosmetic compositions containing them” (Galderma Research & Development, S.N.C., priority 1998, dated 2005)

Target: T1, RXRalpha (Homo sapiens, UniProt P19793)
T1 construct: expressed in transfected cells; host or cells: Cos7 monkey kidney cells
T1 sequence (P19793 1-462): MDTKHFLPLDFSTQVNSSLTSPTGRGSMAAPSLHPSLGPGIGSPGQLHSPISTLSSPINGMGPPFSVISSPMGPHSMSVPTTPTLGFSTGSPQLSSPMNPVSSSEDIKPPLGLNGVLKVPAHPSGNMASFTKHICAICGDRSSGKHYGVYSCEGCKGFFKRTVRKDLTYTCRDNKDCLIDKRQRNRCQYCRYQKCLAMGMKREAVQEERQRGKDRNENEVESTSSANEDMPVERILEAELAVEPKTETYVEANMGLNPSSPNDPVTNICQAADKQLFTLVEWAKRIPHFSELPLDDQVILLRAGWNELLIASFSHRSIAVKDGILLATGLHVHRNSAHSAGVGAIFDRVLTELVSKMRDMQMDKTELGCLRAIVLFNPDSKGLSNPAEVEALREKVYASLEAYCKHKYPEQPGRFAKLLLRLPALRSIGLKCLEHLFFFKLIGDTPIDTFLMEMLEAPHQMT
Experiment: RXR antagonist transactivation test (cotransfection pSG5-RXRalpha / CRBPII-tk-Luc, luciferase)
Format: cell-based
Details: Cos7 cells; for inhibition at 1 µM: COS-7, test compound at 10^−6M final, 3 nM reference agonist, treatment 18 h, luciferase activity, read-out: % of inhibition of the induction obtained with the agonist alone; for IC50: in the presence of 3 nM agonist 6-[1-(3,5,5,8,8-pentamethyl-5,6,7,8-tetrahydro-2-naphthalenyl)cyclopropyl]nicotinic acid, 5 concentrations 10^−5 to 10^−9 M, read-out: IC50 (dose required to achieve 50% inhibition of the agonist activity)
Source text: a) Determination of the IC50 values of the antagonist compounds
The dose-response curve obtained makes it possible to determine the IC50 value which is specific to the compound.
b) Test of RXR Antagonist Transactivation
The properties of inhibition of the activation of the RXR response elements (RXRE) can be determined by recognized methods of the art.
The receptor expression plasmid pSG5-RXRalpha and the reporter plasmid CRBPII-tk-Luc are introduced into the Cos7 monkey kidney cell line by the method of coprecipitation with calcium phosphate described in Molecular Cloning: A laboratory manual (Sambrook et al. eds. Cold Spring Harbor Lab. Publ. 1989). […] The test compound is added at 10^−6M final. After treatment for 18 h, the cells are rinsed with PBS and lysed in 0.1M KPO4 (pH 7.8), 1.0% Triton X100, 1.0 mM DTT, 1 mM EDTA. The luciferase activity of the cell lysatesis measured as described by deWet et al. in Mol. Cell. Biol. 7:725 (1987).

inhibition at 1 µM [%]	IC50 [nM]	SMILES
57	671	CCCOc1cc2c(cc1[Se]C#CC(C)=CC(=O)O)C(C)(C)CCC2(C)C [EXAMPLE 10, 3-Methyl-5-(5,5,8,8-tetramethyl-3-propoxy-5,6,7,8-tetrahydronaphthalen-2-ylselenyl)pent-2-en-4-ynoic Acid]
92	71	CCCOc1cc([Se]C#CC(C)=CC(=O)O)cc2c1C(C)(C)CCC2(C)C [EXAMPLE 12, 3-Methyl-5-(5,5,8,8-tetramethyl-4-propoxy-5,6,7,8-tetrahydronaphthalen-2-ylselenyl)pent-2-en-4-ynoic Acid]
61	471	COCOc1cc([Se]C#CC(C)=CC(=O)O)cc2c1C(C)(C)CCC2(C)C [EXAMPLE 14, 5-(4-Methoxymethoxy-5,5,8,8-tetramethyl-5,6,7,8-tetrahydronaphthalen-2-ylselenyl)-3-methylpent-2-en-4-ynoic Acid]
